Reference: publication PMC4514675, “Novel Apo E-Derived ABCA1 Agonist Peptide (CS-6253) Promotes Reverse Cholesterol Transport and Induces Formation of preβ-1 HDL In Vitro” (PLoS ONE, 2015)

Tested on: THP-1 foam cells
Experiment: Cholesterol efflux from THP-1 macrophage-derived foam cells
Format: cell-based, human
Experimental: Human THP-1 macrophages (American Type Tissue Culture Collection, Camden, NJ) were grown as previously reported. Cells were plated at 2x10^5/ml 24 well-plates in RPMI1640 medium containing 10% fetal bovine serum (FBS), 50 μM β–mercaptoethanol, 50 μg/ml gentamicin, and maintained at 37°C in a humidified atmosphere of 5% CO2. THP-1 cells were differentiated into macrophages by the addition of 200 nM phorbol myristyl acetate (PMA) for 72h. Macrophages were incubated for 72h to become fully differentiated macrophages prior to experiment. […]
Human macrophages THP-1 cells were labelled with ^3H-cholesterol (5 μCi/ml) incorporated into AcLDL (100 μg/ml) in the presence of 1% FBS, 50 μM β-mercaptoethanol and 200 nM PMA, and incubated for 72h. […] Medium and cell associated ^3H-cholesterol were then measured by liquid scintillation counting. Cholesterol efflux was calculated according to the following equation as the percentage of ^3H-cpm medium / (^3H-cpm medium + ^3H-cpm cells) × 100%. […] Bands corresponding to ^3[H]-FC and ^3[H]-CE were located by exposure to iodine vapor, and were scraped off the plate into liquid scintillating vials and assayed for radioactivity.
Fig 2 Effect of CS-6253 treatment on cholesterol efflux. […] Cholesterol efflux from either ABCA1 cells or control cells to apo A-I (closed circles), and CS-6253 (closed triangles) was determined at the indicated time points. […]

apolipoprotein A-I [apo A-I]
3H-FC removed from FC-enriched THP-1 cells (0.96 μM acceptor, 24 h, vs control without acceptor, triplicate wells, mean ± SD): 27.42±1.04% | proportion of FC mobilized away from the CE cycle (THP-1 foam cells, P<0.05): 29%
